Assay results from US10640533B2, “Epoxyketone compounds for enzyme inhibition” (CENTRAX INTERNATIONAL, INC., priority 2014, dated 2020).
Converted amounts (≈) assume the structure as drawn. Like-named read-outs stand apart in the source and are kept apart here.

Assays:
[1] = molecular target: Constitutive 20S proteasome peptidylglutamyl peptide hydrolyzing (PGPH) activity (Homo sapiens (Human), UniProt P28072+Q99436); test: Constitutive 20S proteasome PGPH activity inhibition, fluorogenic substrate Z-Leu-Leu-Glu-AMC; type: biochemical; conditions: purified human 20S proteasome, room temperature, one hour
Method: (§1) Inhibition of the 20S proteasome can be determined by methods and assays known in the art, for example, as disclosed by Stein et al., Biochemistry (1996), 35, 3899-3908; by Lightcap et al., Clinical Chemistry, 2000, 46, 673-683; by Kisselev et al., Journal of Biological Chemistry. (2006), 281, 8582-8590 and in U.S. application Ser. No. 09/569,748. The chymotrypsin-like (CT-L), peptidylglutamyl peptide hydrolyzing (PGPH) and trypsin-like (T-L) activities of the 20S proteasome are measured with a fluorogenic substrate assay method using succinyl-Leu-Leu-Val-Tyr-AMC, Z-Leu-Leu-Glu-AMC and Boc-Leu-Arg-Arg-AMC, respectively, as the substrates in an assay buffer. The free fluorophore 7-Amino-4-methylcoumarin (AMC) after cleavage from the substrates is quantified using a fluorometer and activity of CT-L, PGPH and T-L of 20S proteasome is determined.
(§2) Inhibition of the chymotrypsin-like (CT-L), peptidylglutamyl peptide hydrolyzing activity (PGPH), and trypsin-like (T-L) activities of the 20S proteasome in enzymatic assays were determined using succinyl-Leu-Leu-Val-Tyr-AMC (10 μmol/L), Z-Leu-Leu-Glu-AMC (10 μmol/L) and Boc-Leu-Arg-Arg-AMC (50 μmol/L), respectively, as the substrates with purified human 20S proteasome at 2, 4 and 8 nmol/L, respectively, in the assay buffer containing 25 mM HEPES (pH7.5), 0.5 mM EDTA, 0.002% sodium dodecyl sulfate (SDS) and 0.05% NP-40. Stock solutions of the 20S proteasome inhibitors disclosed herein were prepared in dimethyl sulfoxide (DMSO) and the final DMSO concentration in the assay mixture was 1%. Reaction was conducted at room temperature for one hour. Proteasome activity was measured based on detection of the fluorophore 7-Amino-4-methylcoumarin (AMC) after cleavage from the substrates with a plate-based spectrofluorometer.

[2] = molecular target: Constitutive 20S proteasome chymotrypsin-like (CT-L) activity (Homo sapiens (Human), UniProt P20618+P28074); test: Constitutive 20S proteasome CT-L activity inhibition, fluorogenic substrate succinyl-Leu-Leu-Val-Tyr-AMC; type: biochemical
Method: as §1, §2

[3] = molecular target: 20S Immunoproteasome peptidylglutamyl peptide hydrolyzing (PGPH) activity (Homo sapiens (Human), UniProt P28065+P40306); test: 20S immunoproteasome PGPH activity inhibition, fluorogenic substrate Z-Leu-Leu-Glu-AMC; type: biochemical; conditions: purified human 20S proteasome, room temperature, one hour
Method: as §1, §2

[4] = molecular target: 20S Immunoproteasome chymotrypsin-like (CT-L) activity (Homo sapiens (Human), UniProt P20618+P28062); test: 20S immunoproteasome CT-L activity inhibition, fluorogenic substrate succinyl-Leu-Leu-Val-Tyr-AMC; type: biochemical; conditions: purified human 20S proteasome, room temperature, one hour
Method: as §1, §2

[5] = molecular target: Constitutive 20S proteasome trypsin-like (T-L) activity (Homo sapiens (Human), UniProt P49720+Q99436); test: Constitutive 20S proteasome T-L activity inhibition, fluorogenic substrate Boc-Leu-Arg-Arg-AMC; type: biochemical
Method: as §1, §2

[6] = molecular target: 20S Immunoproteasome trypsin-like (T-L) activity (Homo sapiens (Human), UniProt P40306+P49720); test: 20S immunoproteasome T-L activity inhibition, fluorogenic substrate Boc-Leu-Arg-Arg-AMC; type: biochemical; conditions: purified human 20S proteasome, room temperature, one hour
Method: as §1, §2

[7] = Aqueous solubility of the compounds; type: physicochemical; conditions: 50 mM citrate buffer, pH 4, aqueous buffer, thermodynamic from solid, 50 mM citrate pH4.0, 25° C.
Method: To determine the solubility of the compounds, 1-5 mg of a compound was weighed into a vial. 1 mL of aqueous buffer (50 mM citrate at pH4.0) was added. The vial was shaken at 25° C. for 24 hours and then centrifuged for 10 min at 10000 rpm. The supernatant was filtered through a 0.45 μm membrane filter and analyzed for the concentration of the compound. In certain embodiments, the aqueous solubility of the compounds is described herein in Table 1.

[8] = form of 20S proteasome not stated, 'below about'
[9] = purified human 20S proteasome, room temperature, one hour, read-out: Proteasome inhibition IC50 (nM) Constitutive 20S proteasome CT-L
[10] = purified human 20S proteasome, room temperature, one hour, read-out: Proteasome inhibition IC50 (nM) Constitutive 20S proteasome T-L
[11] = form of 20S proteasome not stated, 'below about', read-out: concentration showing inhibition of T-L activity of the 20S proteasome

Row | Structure (SMILES) | IC50 [1] [nM] | IC50 [2, 8] [nM] | IC50 [2, 9] [nM] | IC50 [3] [nM] | IC50 [4] [nM] | IC50 [5, 10] [nM] | IC50 [6] [nM] | solubility at 24 h [7] [µg/mL] | IC50 [5, 11] [nM]
1 | CC(C)C[C@H](NC(=O)[C@H](CCc1ccccc1)NC(=O)c1cc(CN2CCOCC2)on1)C(=O)N[C@@H](Cc1ccncc1)C(=O)[C@@]1(C)CO1 [CX13-104] | > 20000 | < 50 | 33.3 | > 20000 | 33.6 | > 20000 | > 20000 | 1440 (≈ 2130 µM) | –
2 | CC(C)C[C@H](NC(=O)[C@H](CCc1ccccc1)NC(=O)c1cc(CN2CCOCC2)on1)C(=O)N[C@@H](Cc1ccccc1)C(=O)[C@@]1(C)CO1 [CX13-105] | > 20000 | < 5 | 0.97 | > 20000 | 1.34 | > 20000 | > 20000 | 21 (≈ 31.2 µM) | –
3 | CC(C)C[C@H](NC(=O)[C@H](CCc1ccccc1)NC(=O)CN1CCOCC1)C(=O)N[C@@H](Cc1ccccc1)C(=O)[C@@]1(C)CO1 [CX13-107] | > 20000 | < 5 | 4.74 | > 20000 | 5.1 | 9950 | 6220 | 83 (≈ 137 µM) | –
4 | CC(C)C[C@H](NC(=O)[C@H](CCc1ccccc1)NC(=O)CN1CCOCC1)C(=O)N[C@@H](Cc1ccncc1)C(=O)[C@@]1(C)CO1 [CX13-109] | > 20000 | – | > 500 | > 20000 | > 500 | > 20000 | > 20000 | 3490 (≈ 5740 µM) | –
5 | CC(=O)N[C@@H](CCc1ccccc1)C(=O)N[C@@H](Cc1ccncc1)C(=O)N[C@@H](CC(C)C)C(=O)[C@@]1(C)CO1 [CX13-130] | > 20000 | < 100 | 62.4 | > 20000 | 248 | 3600 | 1650 | 1360 (≈ 2600 µM) | –
6 | CC(C)C[C@H](NC(=O)[C@H](Cc1ccncc1)NC(=O)[C@H](CCc1ccccc1)NC(=O)Cc1ccc(CN2CCOCC2)cc1)C(=O)[C@@]1(C)CO1 [CX13-133] | > 20000 | < 5 | 3.58 | > 20000 | 4.65 | 443 | 455 | 6360 (≈ 9110 µM) | < 500
7 | Cc1cc(C(=O)N[C@@H](CCc2ccccc2)C(=O)N[C@@H](Cc2ccncc2)C(=O)N[C@@H](CC(C)C)C(=O)[C@@]2(C)CO2)no1 [CX13-135] | > 20000 | < 10 | 6.56 | > 20000 | 28.1 | 13400 | 6450 | 1160 (≈ 1970 µM) | –
8 | Cc1ncc(C(=O)N[C@@H](CCc2ccccc2)C(=O)N[C@@H](Cc2ccncc2)C(=O)N[C@@H](CC(C)C)C(=O)[C@@]2(C)CO2)s1 [CX13-137] | > 20000 | < 50 | 13.5 | > 20000 | 60.4 | 11900 | 5860 | 910 (≈ 1500 µM) | –
9 | COC[C@H](NC(=O)c1cc(CN2CCOCC2)on1)C(=O)N[C@@H](Cc1ccncc1)C(=O)N[C@@H](CC(C)C)C(=O)[C@@]1(C)CO1 [CX13-500] | > 20000 | – | 121 | > 20000 | 170 | > 20000 | > 20000 | > 2350 | –
10 | COC[C@H](NC(=O)c1cc(C)on1)C(=O)N[C@@H](Cc1ccncc1)C(=O)N[C@@H](CC(C)C)C(=O)[C@@]1(C)CO1 [CX13-501] | > 20000 | – | 113 | > 20000 | 392 | > 20000 | > 20000 | 4480 (≈ 8460 µM) | –
11 | CC(C)C[C@H](NC(=O)[C@H](Cc1ccccc1)NC(=O)[C@H](CCc1ccccc1)NC(=O)c1cc(CN2CCOCC2)on1)C(=O)[C@@]1(C)CO1 [CX13-600] | > 20000 | < 5 | 4.28 | > 20000 | 7.41 | > 20000 | 19900 | 20 (≈ 29.7 µM) | –
12 | COC[C@H](NC(=O)[C@H](CCc1ccccc1)NC(=O)c1cc(CN2CCOCC2)on1)C(=O)N[C@@H](CC(C)C)C(=O)[C@@]1(C)CO1 [CX13-601] | > 20000 | < 50 | 16 | > 20000 | 31.7 | > 20000 | > 20000 | 480 (≈ 765 µM) | –
13 | C[C@]1(C(=O)[C@H](Cc2ccccc2)NC(=O)[C@H](Cc2cscn2)NC(=O)[C@H](CCc2ccccc2)NC(=O)c2cc(CN3CCOCC3)on2)CO1 [CX13-605] | > 20000 | < 10 | 12.2 | > 20000 | 6.81 | > 20000 | > 20000 | 120 (≈ 168 µM) | –
14 | COC[C@H](NC(=O)[C@H](CCc1ccccc1)NC(=O)Cc1ccc(CN2CCOCC2)cc1)C(=O)N[C@@H](CC(C)C)C(=O)[C@@]1(C)CO1 [CX13-606] | > 20000 | < 10 | 6.1 | > 20000 | 59.3 | 297 | 186 | 3730 (≈ 5730 µM) | < 500
15 | COC[C@H](NC(=O)[C@H](CCc1ccccc1)NC(=O)c1cnc(C)s1)C(=O)N[C@@H](Cc1ccccc1)C(=O)[C@@]1(C)CO1 [CX13-705] | > 20000 | < 10 | 9.75 | > 20000 | 15.3 | 15800 | > 20000 | 20 (≈ 33.7 µM) | –
16 | COC[C@H](NC(=O)c1cnc(C)s1)C(=O)N[C@@H](COC)C(=O)N[C@@H](Cc1ccccc1)C(=O)[C@@]1(C)CO1 [CX13-709] | – | – | – | – | – | – | – | 570 (≈ 1070 µM) | –
